Bridges are numbered along the chain shown (N, C = ends). Where no end group is shown, it is not given here.
Legend:
[1] = tested on: fixed ECM of fibroblasts or differentiated myofibroblasts; test: AF38Pep-Cy5 labelling of ECM vs FN1 immunostaining; type: cell-based
Experimental: A solution containing 1:1 molar ratio of AF38Pep to non-sulphated Cy5-NHS-ester (APExBIO, Houston, TX, USA) was incubated overnight in RT, shielded from light and under constant mixing. The following day, the solution was passed through a PD-10 Sephadex G-25 M gel filtration column (GE Healthcare, Chicago, IL, USA) into PBS. The first 3 fractions (highest molecular weight) were collected, dialyzed (membrane MWCO 1 kDa) against ddH2O overnight, and concentrated by vacuum centrifuge at 3000 rpm at 60 °C for 3 h. Fibroblasts were grown to 70% confluence in 12-well tissue culture plates, before growth arrest in serum-free DMEM for 48 h. […] Any AF38Pep-Cy5 that remained bound to EDA-FN was assessed using an IVIS imaging system (Caliper Life Sciences, PerkinElmer, Hopkinton, MA, USA) set to detect Cy5.5 epifluorescence after excitation at 640 nm. Epifluorescence was quantified using Living Image v4.2 analysis software (Caliper Life Sciences).
Cells were grown to 40% confluence in 8-well glass chamber slides (Nunc, Thermo Fisher Scientific), prior to growth arrest and treatment. […] Cells were then mounted in DAPI Fluoromount-G (Thermo Fisher Scientific) and imaged using a Zeiss Axio Imager Z1 UV fluorescence microscope (Zeiss, Jena, Germany) and a Leica TCS SP5 laser scanning confocal microscope (Leica Biosystems, Baden-Württemberg, Germany).

[2] = tested on: EDA-FN in fixed fibroblast or myofibroblast ECM; test: Competitive labelling of fixed matrices, AF38Pep-Cy5 and IST-9; type: cell-based
Experimental: (§1) A solution containing 1:1 molar ratio of AF38Pep to non-sulphated Cy5-NHS-ester (APExBIO, Houston, TX, USA) was incubated overnight in RT, shielded from light and under constant mixing. The following day, the solution was passed through a PD-10 Sephadex G-25 M gel filtration column (GE Healthcare, Chicago, IL, USA) into PBS. The first 3 fractions (highest molecular weight) were collected, dialyzed (membrane MWCO 1 kDa) against ddH2O overnight, and concentrated by vacuum centrifuge at 3000 rpm at 60 °C for 3 h. Fibroblasts were grown to 70% confluence in 12-well tissue culture plates, before growth arrest in serum-free DMEM for 48 h. Cells were then treated with 10 ng/mL TGF-β1 for 0, 24, 48 and 72 h. The conjugated AF38Pep-Cy5 was added to the plate wells at 10 µg/mL and was incubated for 2 h. The culture medium was removed, and cells were washed three times with PBS before replenishment with fresh serum-free DMEM. Any AF38Pep-Cy5 that remained bound to EDA-FN was assessed using an IVIS imaging system (Caliper Life Sciences, PerkinElmer, Hopkinton, MA, USA) set to detect Cy5.5 epifluorescence after excitation at 640 nm. Epifluorescence was quantified using Living Image v4.2 analysis software (Caliper Life Sciences).
Cells were grown to 40% confluence in 8-well glass chamber slides (Nunc, Thermo Fisher Scientific), prior to growth arrest and treatment. Cells were washed with PBS before fixation in 4% paraformaldehyde for 10 min at room temperature. Next, cells were permeabilized with 0.1% (v/v) Triton X-100 in PBS for 10 min at room temperature. For visualization of ECM, cells were fixed with 100% ice-cold methanol for 8 min at −20 °C. Slides were washed with PBS and blocked with 1% goat serum (TBD Science, Tianjin, China) for 30 min before washing with 0.1% (w/v) BSA in PBS. […] Cells were then mounted in DAPI Fluoromount-G (Thermo Fisher Scientific) and imaged using a Zeiss Axio Imager Z1 UV fluorescence microscope (Zeiss, Jena, Germany) and a Leica TCS SP5 laser scanning confocal microscope (Leica Biosystems, Baden-Württemberg, Germany).

[3] = tested on: EDA-FN ECM of TGF-β1-treated fibroblasts; test: Epifluorescence assay of AF38Pep-Cy5 binding to fibrotic ECM (IVIS); type: cell-based; conditions: AF38Pep-Cy5 10 µg/mL
Experimental: as §1

[4] = molecular target: integrin α4 protein (ITGA4) (not stated (endogenous in fibroblasts; mouse NIH/3T3 and human HFL1 cells were cultured)) (UniProt Q00651); conditions: scale: % of that observed in cells that only received TGF-β1 treatment
Chain of integrin α4 protein (ITGA4) (not stated (endogenous in fibroblasts; mouse NIH/3T3 and human HFL1 cells were cultured)) (Q00651 41-1039): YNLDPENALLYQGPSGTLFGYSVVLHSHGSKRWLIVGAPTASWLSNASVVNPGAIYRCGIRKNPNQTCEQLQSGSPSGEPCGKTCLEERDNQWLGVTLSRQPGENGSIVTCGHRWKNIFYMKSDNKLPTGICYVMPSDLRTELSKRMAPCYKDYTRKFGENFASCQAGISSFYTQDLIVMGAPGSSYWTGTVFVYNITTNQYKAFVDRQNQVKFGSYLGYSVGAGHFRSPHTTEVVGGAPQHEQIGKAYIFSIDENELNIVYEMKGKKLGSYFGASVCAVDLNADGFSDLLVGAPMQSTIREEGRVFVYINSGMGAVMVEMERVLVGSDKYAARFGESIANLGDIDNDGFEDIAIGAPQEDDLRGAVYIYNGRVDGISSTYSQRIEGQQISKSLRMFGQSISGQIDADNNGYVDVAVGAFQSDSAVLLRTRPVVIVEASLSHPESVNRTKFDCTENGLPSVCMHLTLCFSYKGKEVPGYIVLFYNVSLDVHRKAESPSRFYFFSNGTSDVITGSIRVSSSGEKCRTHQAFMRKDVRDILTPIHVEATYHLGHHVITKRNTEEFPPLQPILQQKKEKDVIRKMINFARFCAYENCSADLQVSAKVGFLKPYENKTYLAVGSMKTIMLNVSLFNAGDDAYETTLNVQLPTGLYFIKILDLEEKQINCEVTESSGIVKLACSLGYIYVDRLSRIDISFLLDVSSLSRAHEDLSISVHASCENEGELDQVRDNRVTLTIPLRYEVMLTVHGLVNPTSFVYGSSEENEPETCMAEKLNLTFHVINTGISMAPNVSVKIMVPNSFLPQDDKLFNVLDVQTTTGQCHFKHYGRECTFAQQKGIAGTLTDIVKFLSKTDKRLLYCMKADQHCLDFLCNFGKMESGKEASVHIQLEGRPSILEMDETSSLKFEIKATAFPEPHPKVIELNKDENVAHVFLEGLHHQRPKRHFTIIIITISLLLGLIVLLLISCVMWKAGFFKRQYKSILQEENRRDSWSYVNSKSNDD

[5] = molecular target: T1, FN-EDA, a peptide sharing amino acid sequence with the C-C′ loop of EDA-FN; test: ITC
T1 peptide: TYSSPEDGIHEL

[6] = molecular target: T1, FN-EDA, a peptide sharing amino acid …; test: ITC
[7] = molecular target: T2, antifibrotic 38-amino-acid polypeptide (AF38Pep) (disulfide bridge between the two cysteines); test: ITC; 15 µM AF38Pep in the chamber well, 300 µM small peptide in the injection needle; 25 °C; HEPES buffered saline (140 mM NaCl, 1.5 mM Na2HPO4, 50 mM HEPES; pH 7); MicroCal iTC200; one set of sites model with number of binding sites assumed to be 1; conditions: both partners purified
T2 construct: two stretches derived from integrins β1 and α4, linked by a serine; Design contains the ISTTPAK motif of integrin β1/β7 and the KNENKI motif of integrin α4; source: synthetic peptide (ChinaPeptides)
T2 peptide: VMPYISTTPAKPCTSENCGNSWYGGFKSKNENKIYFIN

Molecule: AF38Pep-Cy5: AF38Pep conjugated to Cy5 dye (non-sulphated Cy5-NHS-ester) (VMPYISTTPAKPCTSENCGNSWYGGFKSKNENKIYFIN; disulfide 13-18 (inferred); also: Cy5 label, site not given here)
- AF38Pep-Cy5 colocalization with FN1 staining, myofibroblast ECM ([1]; differentiated myofibroblasts): colocalization with anti-FN1 staining (yellow) was prominent in areas of fibronectin deposition at cell membranes
- AF38Pep-Cy5 staining of fibroblast ECM ([1]; untreated control fibroblasts): little to no staining
- staining of fibroblast matrices, IST-9 or AF38Pep-Cy5 ([2]; fibroblasts, regardless of the order of addition): minimal, regardless of the order of addition to cells
- blocking of IST-9 staining by AF38Pep-Cy5 pretreatment ([2]; myofibroblasts, AF38Pep-Cy5 first, then IST-9): pre-treatment blocked IST-9 staining
- labelling of EDA-FN after IST-9 pretreatment ([2]; myofibroblasts, IST-9 first, then AF38Pep-Cy5): failed to label the elevated EDA-FN production
- binding to fibrotic ECM with TGF-β1 treatment time ([3]; TGF-β1 10 ng/mL for 24, 48, 72 h): increased binding of AF38Pep to the fibrotic ECM, which correlated with the increasing time of TGF-β1 treatment
- binding at 48 h vs 0 h TGF-β1 treatment ([3]; mean ± S.E., three experiments): significant increases in binding at 48 h

Molecule: extra domain A containing fibronectin (EDA-FN) (from UniProt P11276 33-2477) (natural protein)
- total collagen synthesis (hydroxyproline assay) of NIH/3T3 cells after 48 h of TGF-β1 with AF38Pep as blocker, relative to TGF-β1 alone [4]: 60

Molecule: VMPYISTTPAKPCTSENCGNSWYGGFKSKNENKIYFIN (designed binder, disulfide 13-18 (inferred)) [antifibrotic 38-amino-acid polypeptide (AF38Pep)]
- Ka [5]: 1.11e+06 M⁻¹
- Kd [6]: 858 nM

B1: FN-EDA, a peptide sharing amino acid sequence with the C-C′ loop of EDA-FN (peptide)
peptide: TYSSPEDGIHEL
notes: 12-residue stretch of the C-C′ loop of extra domain A (EDA) of fibronectin; also called fibronectin EDA-peptide; EDA-FN C-C′ loop peptide; source: synthetic peptide (ChinaPeptides)
- binding result [7]: binds
